Laboratory results: US10782295B2, “Cysteine-reactive ligand discovery in proteomes” (THE SCRIPPS RESEARCH INSTITUTE, priority 2013, dated 2020)

Assays:
[1] = molecular target: T1, WT-ZAK (Homo sapiens, UniProt Q9NYL2); assay: gel-based ABPP with IA-rhodamine probe; type: binding; settings: 10, 50 and 100 μM, 30 min; HEK-293T lysate
T1 construct: Full-length cDNA encoding human ZAK-13 (BC001401); expressed in transfected cells
From the text: The gel signals for IA-labeling of WT-ZAK were blocked by pretreatment with HNE over a concentration range that closely matched the HNE-sensitivity profile observed for C22 in competitive isoTOP-ABPP experiments (FIG. 4b, compare to FIG. 3a). […] Considering further that C22 is predicted to reside adjacent to the ATP-binding loop of ZAK, we postulated that the HNE-induced loss of kinase activity might be due to blockade of ATP-binding.
Full-length cDNA encoding human ZAK-13 (BC001401) in pOTB7 was purchased from Open BioSystems and subcloned into pFLAG-CMV-6c (Sigma-Aldrich). ZAK-C22A and ZAK-K45M mutants were generated by QuikChange site-directed mutagenesis using the primer 5′-[…]-3′ (SEQ ID NO:1) and 5′-[…]-3′ (SEQ ID NO:2) and their complements. Wild-type and mutant ZAK were cloned into a modified pCLNCX retroviral vector. Retrovirus was prepared by taking 3.0 μg of each of pCLNCX and pCL-Ampho vectors and […], of FuGENE IID reagent (Roche) to transfect 60% confluent HEK-293T cells. […]
FLAG-tagged wild-type and C22A mutant ZAK were immunoprecipitated from HEK-293T cells ([…]). […] Gel samples were separated by SDS-PAGE (50 μL of sample/lane) and visualized in-gel using a Hitachi FMBio II flatbed laser-induced fluorescence scanner (MiraiBio, Alameda, Calif.). […]

[2] = tested on: JNK pathway activation; assay: Western blotting of phospho-JNK in WT-ZAK-transfected HEK-293T cells; type: cell-based, human
Experimental: We next set out to assess the functional effects of HNE modification of ZAK in human cells. HEK-293T cells were stably transfected with cDNAs for WT-ZAK, C22A-ZAK, or K45M-ZAK and the activation state of their MAPK signaling pathways was monitored by western blotting with anti-phosphoprotein antibodies. […] We next treated cells with H2O2 (1 mM, 30 min) to induce oxidative stress, a process that is known to activate the JNK pathway^41,42. H2O2 treatment stimulated JNK activity in both WT- and C22A-ZAK-transfected cells (but not K45M-ZAK-transfected cells), with WT-ZAK cells showing the greater level of activation (FIG. 5b,c). […] We interpret these findings to indicate the existence of both ZAK-dependent and ZAK-independent pathways for HNE modulation of JNK activation (FIG. 5d). By modifying C22 on ZAK, HNE blocks the contribution that this kinase makes to the activation of the JNK pathway. […]
Mouse and rabbit monoclonal antibodies against phospho-ERK 1/2 (Thr202/Tyr204), phosphor-SAPK/JNK (Thr183/[…]), phosphor-p38 MAPK (Thr180/[…]) and total ERK 1/2, SAPK/JNK and p38 MAPK were purchased from Cell Signaling Technology. […] Protein band intensities were quantified by ImageJ8 and ratios of phosphor-MAPK over total MAPK were computed. […]

T1 sequence (Q9NYL2 1-455 isoform Q9NYL2-2): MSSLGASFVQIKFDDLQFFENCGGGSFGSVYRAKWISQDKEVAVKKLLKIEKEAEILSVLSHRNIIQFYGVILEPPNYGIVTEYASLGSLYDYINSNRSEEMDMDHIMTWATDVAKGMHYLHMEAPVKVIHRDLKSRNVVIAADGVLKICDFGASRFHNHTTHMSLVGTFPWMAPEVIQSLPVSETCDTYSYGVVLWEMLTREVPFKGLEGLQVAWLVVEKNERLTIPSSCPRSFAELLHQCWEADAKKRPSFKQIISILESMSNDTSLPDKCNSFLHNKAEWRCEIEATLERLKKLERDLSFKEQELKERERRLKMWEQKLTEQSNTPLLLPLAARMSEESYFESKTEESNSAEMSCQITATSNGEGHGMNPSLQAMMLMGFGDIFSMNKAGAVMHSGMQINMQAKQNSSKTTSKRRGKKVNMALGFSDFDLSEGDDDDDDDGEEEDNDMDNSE

## CCCCCC(O)/C=C/C=O (stereo not drawn) [4-HNE, 4-Hydroxynonenal]
[1]
  gel signals for IA-labeling of WT-ZAK after pretreatment: blocked
[2]; 50 or 100 μM, 60 min
  JNK activation by HNE alone, WT-ZAK-transfected cells: mostly unaffected
[2]; pre-treatment 100 μM, 30 min, then H2O2 1 mM, 30 min
  H2O2-dependent JNK activation, WT-ZAK cells: blocking H2O2-dependent JNK activation
